The source made the active and inactive calls. The rule behind the calls is not given here.
Assays:
[1] = molecular target: T1, Peptidyl-prolyl cis-trans isomerase FKBP5 (Homo sapiens, UniProt Q13451); test: Binding affinity to human FKBP51 FK1 domain expressed in Escherichia coli BL21 DE3 Gold assessed as dissociation constant incubated for 30 mins by competitive fluorescence polarization assay
T1 sequence (Q13451 whole entry): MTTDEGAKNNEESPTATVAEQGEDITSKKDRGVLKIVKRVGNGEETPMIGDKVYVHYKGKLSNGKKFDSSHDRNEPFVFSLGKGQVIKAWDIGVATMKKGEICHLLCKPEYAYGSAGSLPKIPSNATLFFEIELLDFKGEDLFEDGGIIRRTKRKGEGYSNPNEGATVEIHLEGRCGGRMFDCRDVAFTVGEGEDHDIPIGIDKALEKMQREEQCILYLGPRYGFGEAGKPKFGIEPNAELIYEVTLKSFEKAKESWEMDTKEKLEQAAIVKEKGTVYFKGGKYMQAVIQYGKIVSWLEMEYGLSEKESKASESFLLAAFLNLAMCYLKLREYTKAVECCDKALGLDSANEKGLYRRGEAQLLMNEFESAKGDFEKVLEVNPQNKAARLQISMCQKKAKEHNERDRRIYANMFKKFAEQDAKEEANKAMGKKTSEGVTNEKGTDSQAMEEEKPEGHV

HEK293T [2] = test: Stabilization of FLAG tagged human FKBP51 P120pBpa incorporation mutant/human Akt complex in HEK293T cells assessed as induction of photocrosslinking adduct formation at 1 uM pretreated with compound followed by UV irradiation for 30 mins by immunoprecipitation based Western blot analysis; format: cell-based
[3] = molecular target: Peptidyl-prolyl cis-trans isomerase FKBP1A (Homo sapiens, UniProt P62942); test: Binding affinity to human FKBP12 expressed in Escherichia coli BL21 DE3 Gold assessed as dissociation constant incubated for 30 mins by competitive fluorescence polarization assay
[4] = molecular target: Peptidyl-prolyl cis-trans isomerase FKBP1B (Homo sapiens, UniProt P68106); test: Binding affinity to human FKBP12.6 expressed in Escherichia coli BL21 DE3 Gold assessed as dissociation constant incubated for 30 mins by competitive fluorescence polarization assay
[5] = molecular target: T2, Peptidyl-prolyl cis-trans isomerase FKBP4 (Homo sapiens, UniProt Q02790); test: Binding affinity to human FKBP52 FK1 domain expressed in Escherichia coli BL21 DE3 Gold assessed as dissociation constant incubated for 30 mins by competitive fluorescence polarization assay
T2 sequence (Q02790 whole entry): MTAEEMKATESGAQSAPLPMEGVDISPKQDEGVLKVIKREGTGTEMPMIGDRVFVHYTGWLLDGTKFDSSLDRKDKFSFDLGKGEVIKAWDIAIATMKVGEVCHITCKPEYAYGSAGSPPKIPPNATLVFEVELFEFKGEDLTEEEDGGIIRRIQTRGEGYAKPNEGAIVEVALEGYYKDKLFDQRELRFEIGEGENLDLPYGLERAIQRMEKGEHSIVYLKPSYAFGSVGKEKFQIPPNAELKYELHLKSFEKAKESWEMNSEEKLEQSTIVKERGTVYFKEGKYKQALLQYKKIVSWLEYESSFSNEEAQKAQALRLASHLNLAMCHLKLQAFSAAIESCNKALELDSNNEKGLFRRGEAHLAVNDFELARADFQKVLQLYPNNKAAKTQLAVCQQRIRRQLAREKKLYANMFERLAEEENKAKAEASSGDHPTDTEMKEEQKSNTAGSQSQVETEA

HEK293T [6] = test: Stabilization of FLAG tagged human FKBP51 K52pBpa incorporation mutant/human Akt complex in HEK293T cells assessed as increase in photocrosslinking at 1 uM pretreated with compound followed by UV irradiation for 30 mins by immunoprecipitation based Western blot analysis; format: cell-based
HEK293T [7] = test: Stabilization of FLAG tagged human FKBP51 K52pBpa incorporation mutant/human Akt complex in HEK293T cells assessed as increase in Akt1 coimmunoprecipitation at 1 uM in absence of UV irradiation by immunoprecipitation based Western blot analysis; format: cell-based
HEK293T [8] = test: Stabilization of FLAG-tagged wild type human FKBP51/human Akt complex in HEK293T cells assessed as increase in Akt co-immunoprecipitation at 1 uM by Western blot analysis; format: cell-based
HEK293T [9] = test: Stabilization of FLAG-tagged human FKBP51 K52pBpa incorporation mutant/wild type Akt in HEK293T cells assessed as photocrosslinking adduct formation at 1 uM pretreated with compound followed by UV irradiation for 30 mins by immunoprecipitation based Western blot analysis; format: cell-based
HEK293T [10] = test: Stabilization of FLAG tagged human FKBP51 P120pBpa incorporation mutant/human Akt complex in HEK293T cells assessed as increase in photocrosslinking at 1 uM pretreated with compound followed by UV irradiation for 30 mins by immunoprecipitation based Western blot analysis; format: cell-based
HEK293T [11] = test: Stabilization of FLAG tagged human FKBP51 P120pBpa incorporation mutant/human Akt complex in HEK293T cells assessed as increase in Akt1 coimmunoprecipitation at 1 uM in absence of UV irradiation by immunoprecipitation based Western blot analysis; format: cell-based
HEK293T [12] = test: Stabilization of FLAG tagged human FKBP51 E75pBpa incorporation mutant/human Akt complex in HEK293T cells assessed as increase in photocrosslinking pretreated with compound followed by UV irradiation by immunoprecipitation based Western blot analysis; format: cell-based
HEK293T [13] = test: Stabilization of FLAG tagged human FKBP51 N74pBpa incorporation mutant/human Akt complex in HEK293T cells assessed as increase in photocrosslinking pretreated with compound followed by UV irradiation by immunoprecipitation based Western blot analysis; format: cell-based
HEK293T [14] = test: Stabilization of FLAG-tagged human HSP90 binding incompetent FKBP51 K352A/R356A mutant/human Akt complex in HEK293T cells assessed as increase in Akt co-immunoprecipitation at 1 uM by Western blot analysis; format: cell-based
HEK293T [15] = test: Stabilization of FLAG-tagged human FKBP51 K52pBpa incorporation mutant/human Akt S473A mutant in HEK293T cells assessed as photocrosslinking adduct formation at 1 uM pretreated with compound followed by UV irradiation for 30 mins by immunoprecipitation based Western blot analysis; format: cell-based
HEK293T [16] = test: Stabilization of FLAG-tagged human FKBP51 K52pBpa incorporation mutant/human Akt S473D mutant in HEK293T cells assessed as photocrosslinking adduct formation at 1 uM pretreated with compound followed by UV irradiation for 30 mins by immunoprecipitation based Western blot analysis; format: cell-based
HEK293T [17] = test: Stabilization of FLAG-tagged human FKBP51 K52pBpa incorporation mutant/human Akt T308A mutant in HEK293T cells assessed as photocrosslinking adduct formation at 1 uM pretreated with compound followed by UV irradiation for 30 mins by immunoprecipitation based Western blot analysis; format: cell-based
HEK293T [18] = test: Stabilization of FLAG-tagged human FKBP51 K52pBpa incorporation mutant/human Akt T308D mutant in HEK293T cells assessed as photocrosslinking adduct formation at 1 uM pretreated with compound followed by UV irradiation for 30 mins by immunoprecipitation based Western blot analysis; format: cell-based
HEK293T [19] = test: Stabilization of FLAG-tagged human FKBP51 K52pBpa incorporation mutant/human Akt T308A/S473A mutant in HEK293T cells assessed as photocrosslinking adduct formation at 1 uM pretreated with compound followed by UV irradiation for 30 mins by immunoprecipitation based Western blot analysis; format: cell-based

Peptidyl-prolyl cis-trans isomerase FKBP1A, sequence (P62942 whole entry): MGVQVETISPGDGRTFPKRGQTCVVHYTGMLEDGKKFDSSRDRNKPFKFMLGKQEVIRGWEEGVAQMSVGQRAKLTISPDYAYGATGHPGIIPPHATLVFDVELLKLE
Peptidyl-prolyl cis-trans isomerase FKBP1B, sequence (P68106 whole entry, the tested form may be a part): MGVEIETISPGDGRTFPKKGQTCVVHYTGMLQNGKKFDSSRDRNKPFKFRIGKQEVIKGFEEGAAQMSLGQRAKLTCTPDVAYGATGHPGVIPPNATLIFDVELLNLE

Structure (SMILES)	Kd [1]	Activity (HEK293T [2])	Kd [3]	Kd [4]	Kd [5]	Activity (HEK293T [6])	Activity (HEK293T [7])	Activity (HEK293T [8])	Activity (HEK293T [9])	Activity (HEK293T [10])	Activity (HEK293T [11])	Activity (HEK293T [12])	Activity (HEK293T [13])	Activity (HEK293T [14])	Activity (HEK293T [15])	Activity (HEK293T [16])	Activity (HEK293T [17])	Activity (HEK293T [18])	Activity (HEK293T [19])
C=CC[C@@H]1/C=C(\C)C[C@H](C)C[C@H](OC)[C@H]2O[C@@](O)(C(=O)C(=O)N3CCCC[C@H]3C(=O)O[C@H](/C(C)=C/[C@@H]3CC[C@@H](O)[C@H](OC)C3)[C@H](C)[C@@H](O)CC1=O)[C@H](C)C[C@@H]2OC [TACROLIMUS ANHYDROUS]	75.9 nM	inactive	–	–	–	–	–	–	–	–	–	–	–	–	–	–	–	–	–
C[C@@H]1/C=C/CC/C=C/C(=O)[C@H](C)[C@@H]2CC[C@@H](C)[C@@](O)(O2)C(=O)C(=O)N2CCCC[C@H]2C(=O)O[C@H]([C@H](C)C[C@@H]2CC[C@@H](O)[C@H](O)[C@H]2O)CC1	6.7 nM	Active	0.03 nM	0.38 nM	1.2 nM	Active	Active	Active	Active	Active	Active	Active	Active	Active	Active	Active	Active	Active	Active
CO[C@H]1C[C@@H]2CC[C@@H](C)[C@@](O)(O2)C(=O)C(=O)N2CCCC[C@H]2C(=O)O[C@H]([C@H](C)C[C@@H]2CC[C@@H](O)[C@H](OC)C2)CC(=O)[C@H](C)/C=C(\C)[C@@H](O)[C@@H](OC)C(=O)[C@H](C)C[C@H](C)/C=C/C=C/C=C/1C [SIROLIMUS]	8.5 nM	inactive	–	–	12 nM	–	–	–	–	–	–	–	–	–	–	–	–	–	–

From ChEMBL document CHEMBL5625276, “Antascomicin B stabilizes FKBP51-Akt1 complexes as a molecular glue” (Bioorg Med Chem Lett, 2024)
